The values below come from article PMC11987438, “A novel approach utilizing spirocyclic thiopyrimidinone compounds against herpes simplex virus with underlying antiviral mechanisms of action” (Virology Journal, 2025).

≈ marks a conversion by molar mass, not a printed value.

One data set has as its system herpes simplex virus type 2 (HSV-2). As to the kind of experiment: Antiviral activity screening by MTT. The format is cell-based, human herpes simplex virus type 2. The settings on record: Human alphaherpesvirus 2; HSV-2 (MOI = 1) in Vero cells, 72 h, MTT. As to the method:
In accordance with the previous section, the CC50 (50% cytotoxic concentration) of each compound was determined as the starting point for screening its antiviral activity. A volume of 100 µL of cell suspension containing 10^4 cells was added to each well of a 96-well plate. The plates with the cells were then placed in a 5% humidified CO2 incubator at 37 °C for 24 h to allow the cells to adhere and form a monolayer. The cell monolayers were subsequently washed once with 1x phosphate-buffered saline (PBS) and infected with herpes simplex virus type 2 (HSV-2) (MOI = 1) in triplicate for 1 h. After the infection period, 100 µL of each compound’s serial dilution was added to the infected cells. A triplicate of untreated infected cells was included as a positive control (VC), and the mixture was incubated for 72 h at 37 °C in a 5% CO2 incubator. Following the 72-hour incubation, the supernatant medium was removed, and the cell monolayers were washed with 1x PBS. Then, 25 µL of a 0.5 mg/mL solution of MTT (3-(4,5-dimethylthiazol-2-yl)-2,5-diphenyltetrazolium bromide) obtained from Sigma‒Aldrich, Saint Louis, MO, USA, was added to each well and incubated for 2 h at 37 °C. The MTT reagent was subsequently discarded, and 200 µL of acidified isopropanol (1 N HCl in 99.9% isopropanol) was added to dissolve the formazan crystals formed by the viable cells. Finally, the color intensity was measured, and the absorbance was recorded via an ELISA plate reader. The data obtained were used to calculate the IC50 values (50% inhibitory concentration) via nonlinear regression analysis. This was accomplished by plotting the logarithm of the inhibitor concentration against the normalized response. The analysis was performed via GraphPad Prism 5 analysis software.
The IC50 is the concentration needed to halve the response being measured. High values mean a need for much substance, low ones inhibition by little substance. Compound `N#CC1(/N=N/c2ccc(S(=O)(=O)Nc3ccccn3)cc2)C(=O)NC(=S)NC12CCCCC2` (stereo not drawn) [Compound 5d] had a half-maximal inhibitory concentration (IC50) of 217 µg/mL (≈ 449 µM).
`N#CC1(/N=N/c2ccc(Cl)cc2)C(=O)NC(=S)NC12CCCCC2` (stereo not drawn) [Compound 5e] came in with a half-maximal inhibitory concentration (IC50) of 346 µg/mL (≈ 956 µM).
The compound `N#CC1(/N=N/c2ccc(S(=O)(=O)Nc3nccs3)cc2)C(=O)NC(=S)NC12CCCCC2` (stereo not drawn) [Compound 5f] displayed an IC50 of 399 µg/mL (≈ 814 µM).
Still for that read-out and setting: the result for `CC(=O)C(SC1NC(=O)C(C#N)(/N=N/c2ccc(Cl)cc2)C2(CCCCC2)N1)C(C)=O` (stereo not drawn) [Compound 6a] reads 53.8 µg/mL (≈ 116 µM); that for `CC(=O)C(SC1NC(=O)C(C#N)(/N=N/c2ccc(S(N)(=O)=O)cc2)C2(CCCCC2)N1)C(C)=O` (stereo not drawn) [Compound 6b], 5410 µg/mL (≈ 10700 µM).
The same measure, in the same setting: the result for `CC(=O)C(SC1NC(=O)C(C#N)(/N=N/c2ccc(S(=O)(=O)Nc3ccccn3)cc2)C2(CCCCC2)N1)C(C)=O` (stereo not drawn) [Compound 6c] reads 749 µg/mL (≈ 1280 µM).

Still in this data set, the particulars now being: selectivity index, CC50 (Vero) / IC50 (HSV-2).
In turn, `N#CC1(/N=N/c2ccc(S(=O)(=O)Nc3ccccn3)cc2)C(=O)NC(=S)NC12CCCCC2` (stereo not drawn) [Compound 5d] registered an SI of 2.14.
On the same count and under the same terms, the result for `N#CC1(/N=N/c2ccc(Cl)cc2)C(=O)NC(=S)NC12CCCCC2` (stereo not drawn) [Compound 5e] reads 0.296; that for `N#CC1(/N=N/c2ccc(S(=O)(=O)Nc3nccs3)cc2)C(=O)NC(=S)NC12CCCCC2` (stereo not drawn) [Compound 5f], 0.268; that for `CC(=O)C(SC1NC(=O)C(C#N)(/N=N/c2ccc(Cl)cc2)C2(CCCCC2)N1)C(C)=O` (stereo not drawn) [Compound 6a], 1.15.
`CC(=O)C(SC1NC(=O)C(C#N)(/N=N/c2ccc(S(N)(=O)=O)cc2)C2(CCCCC2)N1)C(C)=O` (stereo not drawn) [Compound 6b] yielded an SI of 0.173.
On the same count and under the same terms, the result for `CC(=O)C(SC1NC(=O)C(C#N)(/N=N/c2ccc(S(=O)(=O)Nc3ccccn3)cc2)C2(CCCCC2)N1)C(C)=O` (stereo not drawn) [Compound 6c] reads 0.056.

System in the next data set: not listed separately
The data set can be described thus: Cytotoxicity screening via crystal violet assay. The format is cell-based. To be noted: African green monkey, Vero cells. As to the method: A volume of 100 µL of cell suspension containing 10^4 cells was placed in each well of a 96-well plate. The plates containing the cells were then placed in a 5% humidified CO2 incubator at 37 °C for 24 h to allow the cells to form a confluent monolayer. By twofold serial dilution, each compound was diluted in 0.01 mL of medium, starting with a concentration of 1000 µg/ml. The diluted compounds were then cultured for 72 h at 37 °C in an environment with 5% CO2. Each concentration was tested 3 times. After the incubation period, the supernatant was discarded, and the cells were washed with 1x phosphate-buffered saline (PBS). The cells were then fixed with 100 µL of 10% formaldehyde and incubated at room temperature for 20 min. The cells were subsequently washed five times with running water. Next, 50 µL of a 0.1% solution of crystal violet dye (LOBA CHEMIE. LTD; C.I.No. 42555) was added to each well and incubated for 15 min. The cell monolayers were washed again and allowed to air dry. Finally, the crystal violet dye was dissolved by adding 200 µL of methanol, and the mixture was incubated for 20 min. The absorbance was measured via an ELISA plate reader (FLUOstar Omega Ω) at a wavelength of 570 nm. Cell viability was calculated as a percentage of the average optical density of the cell controls, which was set to 100%. The 50% cytotoxic concentration (CC50) was calculated via mean dose‒response curves via GraphPad Prism.
In general, CC50 refers to the concentration that lowers cell viability or growth by half. The compound `N#CC1(/N=N/c2ccc(S(=O)(=O)Nc3ccccn3)cc2)C(=O)NC(=S)NC12CCCCC2` (stereo not drawn) [Compound 5d] came in with a cytotoxic concentration (CC50) at 72 h of 466 µg/mL (≈ 963 µM).
On the same count and under the same terms, the value for `N#CC1(/N=N/c2ccc(Cl)cc2)C(=O)NC(=S)NC12CCCCC2` (stereo not drawn) [Compound 5e] was 103 µg/mL (≈ 284 µM); that for `N#CC1(/N=N/c2ccc(S(=O)(=O)Nc3nccs3)cc2)C(=O)NC(=S)NC12CCCCC2` (stereo not drawn) [Compound 5f] was 107 µg/mL (≈ 219 µM); that for `CC(=O)C(SC1NC(=O)C(C#N)(/N=N/c2ccc(Cl)cc2)C2(CCCCC2)N1)C(C)=O` (stereo not drawn) [Compound 6a] was 62.4 µg/mL (≈ 135 µM).
`CC(=O)C(SC1NC(=O)C(C#N)(/N=N/c2ccc(S(N)(=O)=O)cc2)C2(CCCCC2)N1)C(C)=O` (stereo not drawn) [Compound 6b] showed a CC50 at 72 h of 940 µg/mL (≈ 1860 µM).
Compound `CC(=O)C(SC1NC(=O)C(C#N)(/N=N/c2ccc(S(=O)(=O)Nc3ccccn3)cc2)C2(CCCCC2)N1)C(C)=O` (stereo not drawn) [Compound 6c] displayed a CC50 at 72 h of 42.1 µg/mL (≈ 72.1 µM).
